In patent US20240125775A1, “IMMOBILIZATION AND MAGNETIC EXTRACTION OF PATHOGENS AND PATHOGEN COMPONENTS” (priority 2020, published 2024):
Entries after “also recorded” stand apart in the source; their conditions may differ. Ends that are not written are not given here.

Tests used:
[1] = Hydrodynamic particle size (dynamic light scattering); type: physicochemical; conditions: neutral pH (e.g. around 7)
Procedure: Dynamic light scattering (DLS) was performed with a Zetasizer Nano ZS (Malvern Panalytical, Almelo, Netherlands) to determine the hydrodynamic particle size of the NP at 25° C.in water (refractive index 1.33; viscosity 0.8872 mPa-s; backscattering mode at 173°). The same device was used to measure the particle's aqueous zeta potential with 78.5 as dielectric constant. Measurements were done in triplicate at an iron concentration of 50 μg/ml and pH of 7.4, the results were averaged.

[2] = system: LPS (E. coli LPS O55:B5, O26:B6, O111:B4); test: LPS (endotoxin) binding, EndoZyme Recombinant Factor C Assay; conditions: 10 EU/ml LPS
Procedure: In order to evaluate general parameters of the concentration and incubation time with SPIONs, the inventors analysed conditions that are representative for these parameters. A high and a low particle concentration, as well as two exposure conditions were tested (agitation for 30 sec and 3 sec; particle concentration of 0.01 mg Fe/ml and 1 mg Fe/ml) were tested with the peptide exposing SPION^APTES-SBA-SPP04 and non-peptide exposing SPION^HAP. The concentration of peptide for the functionalized particles was assumed to be 0.08 μmol peptide/mg Fe, as assessed above. As other particles have been reported to bind certain amounts of LPS unspecifically, SPION^HAp are interesting for our experiments concerning this concern as a control.
Binding studies of endotoxin were performed with EndoZyme Recombinant Factor C Assay kit (Hyglos, Germany). In this kit, LPS is detected by recombinant Factor C, thus excluding possible interferences by p-glucans. Calibration curves for the three different LPSs have been prepared in endotoxin free water. SPION^APTES-SBA-SPP04 was used in this study as its efficacy has been described previously. For this experiment, we used two different iron concentrations (1 mg Fe/ml and 0.01 mg Fe/ml) and two incubation parameters (30 s at 1400 rpm and 37° C. as well as 3 s at RT). Three different LPSs were added to 200 μl of the different particle dispersions. The final concentration of LPS was set to 10 EU/ml in each tested sample. Spiking controls (8 and 5 EU/ml) were carried out to see if any interference occurred for all tested particles.
Supernatants were produced using a neodymium magnet (310 mT at separation side) for three minutes. 50 μl of each supernatant were mixed with 50 μl of the assay reagent (80% v/v assay buffer, 10% v/v substrate, 10% v/v enzyme) in black, endotoxin-free 96-well plates. The reaction was monitored for 90 minutes at 37° C. in 15 min intervals by recording the fluorescence at an excitation wavelength of 360 nm and an emission at 465 nm in a Filter-Max F5 Plate reader (Molecular Devices).

[3] = system: lipoteichonic acids (LTA); test: Binding of LTA in aqueous Ringer' solution; conditions: 0.3 mg Fe/ml, 2.5 ng/ml LTA; for LTA bound: 5 minutes at 37° C., magnet 3 minutes
Procedure: The binding of a further relevant toxin (from gram-positive bacteria) was also investigated with the improved particles as disclosed herein, which was not described in Karawacka et al. (2018). These experiments were performed in aqueous Ringer' solution. […] For this experiment, 2.5 ng/ml LTA were used and incubated for 5 minutes at 37° C. on a shaker at 700 rpm. Subsequently, the particles were separated magnetically for 3 minutes. […] SPION^APTES-SBA-SPP04/SPION^APTES-SBA-SPP19 could bind 0.75 ng/ml LTA and 0.97 ng/ml, respectively. Thus, a reduction of LTA by 30% and 29%, respectively, could be detected by using the improved particles SPION^APTES-SBA-SPP04/SPION^APTES-SBA-SPP19 as disclosed herein.

[4] = Separation of micromer^LPS (artificial gram-negative bacteria); conditions: initial 0.1 mg/ml micromer^LPS, 1 mg/ml Fe, 2 h, OD 620 nm
Procedure: For a better understanding of the separation process, the inventors tried to remove artificial micromers to simulate bacteria. For this, LPS coated polystyrene/polymethacrylate Micromer® particles (micromer^LPS) were used and removed from a water suspension instead of living bacteria. […] This experiment was performed by optical density measurements at 620 nm, as it is done for actual bacteria.
For this experiment micromer® particles (micromer) were incubated with endotoxin to receive endotoxin coated micromer particles (micromer^LPS). Any other polymeric particles of similar size could have been used as an alternative. It has been reported, that endotoxins stick to surfaces and can be attached to polymeric particles. Therefore, particles bearing 1 mg particles/ml was incubated with 1 μg/ml endotoxin LPS3 for 2 h at 1400 rpm. After centrifugation the particles were washed several times.
SPION^APTES-SBA-SPP04 and unmodified SPION^HAp with a Fe concentration of 1 mg/ml were incubated with 0.1 mg micromer^LPS for 2 h at 1400 rpm and 37° ° C. SPION^APTES served as a control. A calibration curve was prepared with different concentrations of micromer^LPS. The calibration samples and the magnetically decanted supernatants were measured in the reader at 620 nm absorption wavelength like it is used for the OD measurements of bacteria (Brenner et al. 2005 and Chen et al. 2011). […]

E. coli [5] = test: Magnetic separation of E. coli from aqueous medium (Ringer solution); type: cell-based; conditions: 5 minutes incubation, 3 minutes separation
Procedure: E. coli were incubated with particles for 5 minutes and then separated for 3 minutes. Supernatants were plated out. […] A reduction of the particle amount to 0.1 mg Fe/ml led to a reduced bacterial separation 170 CFUS).

Staphylococcus aureus = test: Depletion of Staphylococcus aureus from aqueous medium; type: cell-based; conditions: for Staphylococcus aureus after separation: from 1393 CFU/ml, 0.3 mg Fe/ml, Ringer's solution; for CFU of re-plated bacteria loaded particles: re-plating, S. aureus
From the text: For testing the separation of S. aureus from a sample, particles were functionalized with the peptides SPP04 and SPP19 for this experiment. The bacterial suspension was adjusted to an OD (measured at 600 nm) of 0.13 and then diluted 1:800 with Ringer's solution. […] It could also be shown that the particles have no toxic effect on the bacteria. For Staphylococcus aureus (gram+) a reduction from 1393 CFU/ml to 27 CFU/ml for SPION^APTES-SBA-SPP04 and 73 CFU/ml for SPION^APTES-SBA-SPP19 could be achieved by separation as shown in FIG. 12.

Pseudomonas aeruginosa = test: Depletion of Pseudomonas aeruginosa from aqueous medium; type: cell-based; conditions: from 5320 CFU/ml, 0.3 mg Fe/ml
Procedure: (§1) Analogous observations are shown in FIG. 13 for the gram negative bacterium Pseudomonas aeruginosa reduction from 5320 CFU/ml to 2 CFU/ml for SPION^APTES-SBA-SPP04 and 7 CFU/ml for SPION^APTES-SBA-SPP19 could be achieved. For Serratia marcescens (gram−) a reduction from 1300 CFU/ml to 26 CFU/ml for SPION^APTES-SBA-SPP04 could be achieved as shown in FIG. 14. Redispersed particles that were plated out yielding a recovery of 1227 CFU/ml for SPION^APTES-SBA-SPP04, which is similar to the positive control.

Serratia marcescens = test: Depletion of Serratia marcescens from aqueous medium; type: cell-based
Procedure: as §1

E. coli [6] = test: Separation of E. coli from blood; type: cell-based
Procedure: For this experiment, E. coli was added to blood and then 0.3 mg Fe/ml particles were used to extract/separate the bacteria. Thus, the remaining bacterial load in the blood was tested as a first aspect of this experiment. Furthermore, citrate and EDTA-stabilized blood was used and compared, as EDTA is expected to hinder the binding of the peptide to the bacteria. Therefore, the depletion of bacteria is expected to be lower in EDTA-stabilized blood compared to citrate-stabilized blood. The overall bacterial load in citrate stabilized blood amounted to 1913 colony forming units per milliliter (CFU/ml) (FIG. 15). SPION^APTES-SBA-SPP04 particles reduced the concentration to 927 CFU/ml in citrate-stabilized blood. […] For completeness, in EDTA-stabilized blood, the amount of CFUs was reduced from 2867 CFU/ml to 1733 CFU/ml by SPION^APTES-SBA-SPP04. Thus, a reduction of around 40% was achieved.
In this experiment we used blood from health volunteers and added an amount of bacteria to it. A concentration of 0.3 mg Fe/ml was used for the particles. To 0.8 ml of blood, (citrate or EDTA stabilized) 0.1 bacteria suspension in Ringer's solution have been added. After 5 min. of incubation, 0.1 ml of particles (3 mg Fe/ml) in Ringer's solution have been added. Samples were incubated for 5 minutes on a shaker at 700 rpm. After incubation, the particles have been removed by placing a magnet (310 mT) behind the samples. After 3 min separation of the particles the supernatant were plated out. As a negative control only 0.2 ml Ringer's solution was added to blood. The positive control consisted of 0.8 ml blood and 0.1 ml bacteria suspension and another 0.1 ml Ringer's solution. In addition the particles were washed one time after separation and then redispersed in Ringer's solution and plated out.
After 16 h of incubation, the CFUs (colony forming units) on the plates have been counted. The samples have been compared to the amount found in the positive control.

bacteria = test: Concentration of viable bacteria (10 ml sample, plating); type: cell-based; conditions: 0.3 mg Fe/ml, 30 minutes, 310 mT 3 minutes, 10 ml to 0.5 ml
Procedure: In this experiment, an approach as used with common blood cultures in order to identify pathogens was chosen. The total volume was set to 10 ml. The bacterial suspension was adjusted to an OD (measured at 600 nm) of 0.13 with Ringer's solution analogous to the previous experiments. A sample, which was not treated with SPIONs, served as a control. A concentration of 0.3 mg Fe/ml SPION^APTES-SBA-SPP04 was used. Incubation was performed for 30 minutes at room temperature on a rolling incubator. The particles were then magnetically separated for 3 minutes at 310 mT. 0.5 ml Ringer's solution was added to the particle pellets and vortexed. […] A total of 50 μl was plated out for each sample. […] Compared to common blood cultures, bacterial pathogens can be detected faster by using this method, because the amplification step of the bacteria using blood culture bottles could be omitted.

SPION^APTES-SBA-SPP04: APTES-coated SPIONs linked via SBA to peptide SPP04 (SEQ ID NO: 1) (RKQGRVEVLYRASWGTVC; also: conjugated via SBA linker to APTES-coated SPIONs)
particle diameter after functionalization with peptide [1]: 2.54 μm
binding of LPS ([2]; 0.01 mg Fe/ml (FIG. 8C, D)): about 50%
reduction / binding of LPS, all LPS types ([2]; 0.01 mg Fe/ml, 3 seconds): at least 40%
reduction of LPS, all three LPS types ([2]; 0.01 mg Fe/ml, 30 seconds): at least 48%
LPS bound ([2]; 1 mg Fe/ml, 3 s): 94%
remaining LPS ([2]; 1 mg Fe/ml, 3 s): up to 6%
LPS removal ([2]; 1 mg Fe/ml, 30 s of agitation): completely removed the LPS below the detection limit; also recorded: completely removed the endotoxin below the detection limit
reduction of LTA [3]: 30%
LTA bound [3]: 0.75 ng/mL
remaining micromer^LPS [4]: 0.023 mg/mL
E. coli in supernatant (E. coli [5]; 0.1 mg Fe/ml): 170 CFUs
E. coli in supernatant (E. coli [5]; 1.0 mg Fe/ml): 2 CFU/ml
Staphylococcus aureus after separation (Staphylococcus aureus): 27 CFU/ml
CFU of re-plated bacteria loaded particles (Staphylococcus aureus): in the range of the positive control; also recorded: even increased
Pseudomonas aeruginosa after separation (Pseudomonas aeruginosa): 2 CFU/ml
Serratia marcescens after separation (Serratia marcescens; from 1300 CFU/ml, 0.3 mg Fe/ml): 26 CFU/ml
recovery from redispersed, plated particles (Serratia marcescens; re-plating, Serratia marcescens): 1227 CFU/ml
replating of extracted bacteria (E. coli [6]; EDTA-stabilized blood): 1066 CFU/ml
reduction of bacterial load (E. coli [6]; EDTA-stabilized blood, 0.3 mg Fe/ml): around 40%
E. coli remaining in blood (E. coli [6]; EDTA-stabilized blood, from 2867 CFU/ml, 0.3 mg Fe/ml): 1733 CFU/ml
replating of extracted bacteria (E. coli [6]; citrate-stabilized blood): 913 CFU/ml
E. coli remaining in blood (E. coli [6]; citrate-stabilized blood, from 1913 CFU/ml, 0.3 mg Fe/ml): 927 CFU/ml
plating of sample concentrated with SPIONs (bacteria): dense bacterial lawn

SPION^APTES-SBA-SPP19: APTES-coated SPIONs linked via SBA to peptide SPP19 (SEQ ID NO: 2) (RKQGRVEILYRGSWGTVC; also: conjugated via SBA linker to APTES-coated SPIONs)
reduction of LTA [3]: 29%
LTA bound [3]: 0.97 ng/mL
Staphylococcus aureus after separation (Staphylococcus aureus): 73 CFU/ml
CFU of re-plated bacteria loaded particles (Staphylococcus aureus): in the range of the positive control
Pseudomonas aeruginosa after separation (Pseudomonas aeruginosa): 7 CFU/ml
